Results taken from patent publication US11547681B2, “N-acylethanolamide derivatives and uses thereof” (ELIEM THERAPEUTICS, INC., priority 2016, dated 2023).

Experiments:
[1] = Plasma stability (37° C., pH 7.4), rat; assay type: in vitro ADME, Sprague-Dawley rat; conditions: for half-life at 1 μM: male, Sprague-Dawley, rat, plasma; for % Remaining of Initial (n = 1), 0 min / % Remaining of Initial (n = 1), 15 min / % Remaining of Initial (n = 1), 30 min / % Remaining of Initial (n = 1), 60 min / % Remaining of Initial (n = 1), 120 min / % Remaining of Initial: rat plasma; for % Remaining of Initial (n = 1), 0 min: pH 7.4, 0 min; for % Remaining of Initial (n = 1), 15 min: pH 7.4, 15 min; for % Remaining of Initial (n = 1), 30 min: pH 7.4, 30 min; for % Remaining of Initial (n = 1), 60 min: pH 7.4, 60 min; for % Remaining of Initial (n = 1), 120 min: pH 7.4, 120 min; for % Remaining of Initial: n = 1; for % Remaining of Initial (n = 1): Rat plasma
Method: (§1) Studies were carried out in mixed-gender human plasma (Lot #GLP530-5), male Sprague-Dawley rat (Lot #RAT297944, RAT313140), male CD-1 mouse (Lot #MSE237700), and male Beagle dog (Lot #BGL87670, BGL82614), collected on sodium heparin. Plasma was adjusted to pH 7.4 prior to initiating the experiments. DMSO stocks were first prepared for the test articles. Aliquots of the DMSO solutions were dosed into 700 μL of plasma, which had been pre-warmed to 37° C., at a final test article concentration of 1 μM. […] Samples were stored at 4° C. until the end of the experiment. After the final time point was sampled, the plate was mixed and then centrifuged at 3,000 rpm for 10 minutes. Calibration standards were prepared in matched matrix. […] Analytical conditions are outlined in Appendix 8-1.
as §1, with “#AS1650-2),” for “#GLP530-5),”, “#RAT297944),” for “#RAT297944, RAT313140),”, “CD-I” for “CD-1”, “#BGL91384),” for “#BGL87670, BGL82614),”, “10-1.” for “8-1.”
(§2) Studies were carried out in mixed-gender human plasma (Lot #AS1650-2), male Sprague-Dawley rat (Lot #RAT297944), male CD-1 mouse (Lot #MSE237700), and male Beagle dog (Lot #BGL91384), collected on sodium heparin. Plasma was adjusted to pH 7.4 prior to initiating the experiments. DMSO stocks were first prepared for test articles. […] Samples were stored at 4° C. until the end of experiment. After the final time point was sampled, the plate was mixed and then centrifuged at 3,000 rpm for 10 minutes. Calibration standards were prepared in matched matrix. […] Analytical conditions are outlined in Appendix 13-1.
(§3) Studies were carried out in mixed-gender human plasma (Lot #AS 1650-2), male Sprague-Dawley rat (Lot #RAT320835), male CD-1 mouse (Lot #MSE260693), and 6 male Beagle dog (Lot #BGL91384), on sodium heparin. Plasma was adjusted to pH 7.4 prior to initiating the experiments. DMSO stocks were first prepared for the test articles. Aliquots of the DMSO solutions were dosed into 700 μL of plasma, which had been pre-warmed to 37° C., at a final test article concentration of 1 μM. […] Samples were stored at 4° C. until the end of the experiment. After the final time point was sampled, the plate was mixed and then centrifuged at 3,000 rpm for 10 minutes. Calibration standards were prepared in matched matrix. […] Analytical conditions are outlined in Appendix 17-1.

[2] = Plasma stability (37° C., pH 7.4), dog; assay type: in vitro ADME, Beagle dog; conditions: for % Remaining of Initial (n = 1), 0 min / % Remaining of Initial (n = 1), 15 min / % Remaining of Initial (n = 1), 30 min / % Remaining of Initial (n = 1), 60 min / % Remaining of Initial (n = 1), 120 min / % Remaining of Initial: dog plasma; for % Remaining of Initial (n = 1), 0 min: pH 7.4, 0 min; for % Remaining of Initial (n = 1), 15 min: pH 7.4, 15 min; for % Remaining of Initial (n = 1), 30 min: pH 7.4, 30 min; for % Remaining of Initial (n = 1), 60 min: pH 7.4, 60 min; for % Remaining of Initial (n = 1), 120 min: pH 7.4, 120 min; for half-life at 1 μM: male, Beagle, dog, plasma; for % Remaining of Initial: n = 1; for % Remaining of Initial (n = 1): Dog plasma
Method: as §1
as §1, with “#AS1650-2),” for “#GLP530-5),”, “#RAT297944),” for “#RAT297944, RAT313140),”, “CD-I” for “CD-1”, “#BGL91384),” for “#BGL87670, BGL82614),”, “10-1.” for “8-1.”
as §2, §3

[3] = pH 7.4, rat plasma, test article 1 μM, 37° C., pH 7.4, read-out: Half-life
[4] = pH 7.4, dog plasma, test article 1 μM, 37° C., pH 7.4
[5] = pH 7.4, rat plasma, read-out: Half-life

| SMILES | half-life at 1 μM [1, 3] [min] | % Remaining of Initial (n = 1), 0 min ([1]; test article 1 μM, 37° C.) [%] | % Remaining of Initial (n = 1), 15 min ([1]; test article 1 μM, 37° C.) [%] | % Remaining of Initial (n = 1), 30 min ([1]; test article 1 μM, 37° C.) [%] | % Remaining of Initial (n = 1), 60 min ([1]; test article 1 μM, 37° C.) [%] | % Remaining of Initial (n = 1), 120 min ([1]; test article 1 μM, 37° C.) [%] | % Remaining of Initial (n = 1), 0 min ([2]; test article 1 μM, 37° C.) [%] | % Remaining of Initial (n = 1), 15 min ([2]; test article 1 μM, 37° C.) [%] | % Remaining of Initial (n = 1), 30 min ([2]; test article 1 μM, 37° C.) [%] | % Remaining of Initial (n = 1), 60 min ([2]; test article 1 μM, 37° C.) [%] | % Remaining of Initial (n = 1), 120 min ([2]; test article 1 μM, 37° C.) [%] | half-life at 1 μM [2, 4] [min] | also measured |
| --- | --- | --- | --- | --- | --- | --- | --- | --- | --- | --- | --- | --- | --- |
| CCCCCCCCCCCCCCCC(=O)NCCOC(=O)CCC [Compound I-2] | 49 | 100 | 58 | 59 | 46 | 18 | 100 | 95 | 71 | 54 | 24 | 61 |  |
| CCCCCCCCCCCCCCCC(=O)NCCOC(=O)CCC(=O)OCC(COC(=O)CCCCCCC)OC(=O)CCCCCCC (stereo not shown) [Compound I-3, PEA-Succinate-Glycerol-Di-Caprylic] | > 120 | 100 | 94 | 79 | 76 | 79 | 100 | 90 | 90 | 95 | 99 | > 120 |  |
| CC/C=C\C/C=C\C/C=C\C/C=C\C/C=C\CCCC(=O)OCCNC(=O)CCCCCCCCCCCCCCC [Compound I-5] | > 120 | 100 | 85 | 90 | 87 | 83 | 100 | 87 | 98 | 87 | 83 | > 120 |  |
| CCCCC/C=C\C/C=C\CCCCCCCC(=O)OCCNC(=O)CCCCCCCCCCCCCCC [Compound I-6] | 110 | 100 | 93 | 119 | 100 | 29 | 100 | 55 | 42 | 34 | 22 | 36 |  |
| CCCCCCCCCCCCCCCC(=O)NCCOC(=O)CCC(=O)OC[C@H]1O[C@@](CO)(O[C@H]2O[C@H](CO)[C@@H](O)[C@H](O)[C@H]2O)[C@@H](O)[C@@H]1O [Compound I-7] | < 1 | 100 | <1.0 | <1.0 | <1.0 | <1.0 | 100 | <1.0 | <1.0 | <1.0 | <1.0 | < 1 |  |
| CCCCCCCCCCCCCCCC(=O)NCCOC(=O)CCC(=O)OC(CO)CO [Compound I-8] |  |  |  |  |  |  |  |  |  |  |  |  | half-life at 1 μM [1, 5]: < 1 min; % Remaining of Initial ([1]; 0 min, 1 μM): 100%; % Remaining of Initial ([1]; 15 min, 1 μM): <1.0%; % Remaining of Initial ([1]; 30 min, 1 μM): <1.0%; % Remaining of Initial ([1]; 60 min, 1 μM): <1.0%; % Remaining of Initial ([1]; 120 min, 1 μM): <1.0%; % Remaining of Initial ([2]; 0 min, 1 μM): 100%; % Remaining of Initial ([2]; 15 min, 1 μM): <1.0%; % Remaining of Initial ([2]; 30 min, 1 μM): <1.0%; % Remaining of Initial ([2]; 60 min, 1 μM): <1.0%; % Remaining of Initial ([2]; 120 min, 1 μM): <1.0%; half-life at 1 μM ([2]; pH 7.4, dog plasma): < 1 min |
| CCCCCCCCCCCCCCCC(=O)NCCOC(=O)CCC(=O)OCC(O)CO (stereo not shown) [Compound I-9] | 2.8 | 100 | 2.5 | <1.0 | <1.0 | <1.0 | 100 | 8.7 | 12 | 1.2 | <1.0 | 4.7 |  |
| CCCCCCCCCCCCCCCC(=O)NCCOC(=O)CCC(=O)OCC(COC(=O)CCC)OC(=O)CCC (stereo not shown) [Compound I-11] | 5.6 | 100 | 9.0 | 23 | <1.0 | <1.0 | 100 | 61 | 40 | 18 | 5.4 | 23 |  |
| CCCCC/C=C\C/C=C\CCCCCCCC(=O)OCC(COC(=O)CCC(=O)OCCNC(=O)CCCCCCCCCCCCCCC)OC(=O)CCCCCCC/C=C\C/C=C\CCCCC (stereo not shown) [Compound I-13] |  |  |  |  |  |  |  |  |  |  |  |  | % Remaining of Initial (n = 1) ([1]; 0 min, 1 μM): 100%; % Remaining of Initial (n = 1) ([1]; 15 min, 1 μM): 69%; % Remaining of Initial (n = 1) ([1]; 30 min, 1 μM): 76%; % Remaining of Initial (n = 1) ([1]; 60 min, 1 μM): 36%; % Remaining of Initial (n = 1) ([1]; 120 min, 1 μM): 5.1%; half-life at 1 μM ([1]; pH 7.4, Rat plasma, 1 μM, read-out: Half-life): 42 min; % Remaining of Initial (n = 1) ([2]; 0 min, 1 μM): 100%; % Remaining of Initial (n = 1) ([2]; 15 min, 1 μM): 90%; % Remaining of Initial (n = 1) ([2]; 30 min, 1 μM): 72%; % Remaining of Initial (n = 1) ([2]; 60 min, 1 μM): 54%; % Remaining of Initial (n = 1) ([2]; 120 min, 1 μM): 23%; half-life at 1 μM ([2]; pH 7.4, Dog plasma, 1 μM): 61 min |
| CCCCCCCCCCCCCCCC(=O)NCCOC(=O)CCC(=O)OC(COC(=O)CCC)COC(=O)CCC [Compound I-16] |  |  |  |  |  |  |  |  |  |  |  |  | half-life at 1 μM [1, 5]: < 15 min; half-life at 1 μM ([1]; pH 7.4, rat plasma, read-out: Half-life, calculated value in parentheses): 6.9 min; % Remaining of Initial ([1]; 0 min, 1 μM): 100%; % Remaining of Initial ([1]; 15 min, 1 μM): 20%; % Remaining of Initial ([1]; 30 min, 1 μM): 9.3%; % Remaining of Initial ([1]; 60 min, 1 μM): 4.1%; % Remaining of Initial ([1]; 120 min, 1 μM): 1.6%; % Remaining of Initial ([2]; 0 min, 1 μM): 100%; % Remaining of Initial ([2]; 15 min, 1 μM): 91%; % Remaining of Initial ([2]; 30 min, 1 μM): 65%; % Remaining of Initial ([2]; 60 min, 1 μM): 39%; % Remaining of Initial ([2]; 120 min, 1 μM): 13%; half-life at 1 μM ([2]; pH 7.4, dog plasma): 44 min |
